Measurements as given in patent publication US20230095695A1, “RNAS FOR COMPLEMENT INHIBITION” (Apellis Pharmaceuticals, Inc., priority 2020, published 2023).
Oligonucleotides are written 5' to 3', each unit as a sugar letter and its base; * is a phosphorothioate linkage, no mark a phosphodiester; rarer units and linkages stand in square brackets, end groups in braces. Plain capitals give the bases only. Non-standard residues stand in square brackets, D forms with d. {GalNAc-NHC6} = GalNAc ligand attached through an NHC6 linker; Trp(6-F) = N[C@@H](Cc1c[nH]c2cc(F)ccc12)C(=O)O; m = 2'-O-methyl; f = 2'-fluoro

Key:
[1] = test system: complement activation; details: relative to compstatin amidated at the C-terminus; based on published data; cited from earlier work
[2] = test system: C3 protein; assay: Serum C3 protein (ELISA) in non-human primates after single SC dose; type: in vivo, cynomolgus monkeys; details: for reduction of serum C3 protein vs baseline: by day 29
Description: (§1) Naive male cynomolgus monkeys (n=3 in each group) were subcutaneously (SC) administered a single dose of either 3 mg/kg, 10 mg/kg, or 30 mg/kg siRNA 58, or vehicle (phosphate buffered saline) on day 1.
(§2) Serum samples were scheduled to be collected on days −5, −1, 3, 8, 15, 22, 29, 40, 57, 67, 82, 97, 112, 127, 142, 157, 172 and 184 (where negative values correspond to days before injection with siRNA 58 or vehicle). The level of C3 protein in serum was measured using an ELISA assay. Additionally, serum samples were also analyzed for alternative complement pathway activity (AH50). Values at day −1 value were used as the baseline.

[3] = test system: C3 mRNA; assay: Liver biopsy C3 mRNA (quantitative PCR) in non-human primates after single SC dose; type: in vivo, cynomolgus monkeys; details: for reduction of liver C3 mRNA vs vehicle control: by day 15
Description: as §1
Liver needle biopsies were performed on days 15, 46 and 79. The level of C3 mRNA in the samples was measured using a quantitative PCR assay. C3 mRNA level was normalized to the level of ActB mRNA in these experiments.

[4] = test system: alternative complement pathway; assay: Serum alternative complement pathway activity (AH50) in non-human primates; type: in vivo, cynomolgus monkeys
Description: as §1, §2

[5] = test system: alternative pathway; assay: Serum alternative pathway complement activation (AP Wieslab assay, C5b-9) in rats; type: in vivo, Sprague-Dawley rats
Description: (§3) Dosing: Animals from groups 1-3 and 8 were dosed with a single subcutaneous injection of PBS vehicle or 3, 10 or 30 mg/kg siRNA 59, formulated at a concentration of 0.6, 2 and 6 mg/ml in PBS, respectively, in a dosing volume of 5 ml. Animals from groups 4-7 were dosed with 3× daily subcutaneous injection of […] siRNA 59, formulated at a concentration of 0.2, 0.6 and 2 mg/ml in PBS, respectively, in a dosing volume of 5 ml.
(§4) Sampling: For PD analyses, plasma and serum samples were collected at baseline and days 3, 8, 15, 22 and 29 post-dose. Plasma samples were collected at 15 minutes and 1, 4, 8, 24, 48 and 72 hours post-dose. Liver samples were collected at necropsy on days 3 and 30 post-dose.
Serum PD samples were analyzed for alternative pathway (AP) complement activation at Confluence Discovery Technologies (MO, USA) using the AP Wieslab assay (Eagle Biosciences, Cat #COMPL AP330).
Alternative pathway complement activity: Sera from each animal treated with single dose siRNA 59 and vehicle, as well as the multi-dose siRNA (−) control-treated animals, were used in the AP Wieslab assay, an ELISA-based assay that measures formation of C5b-9 following alternative pathway activation, to assess complement activation (FIG. 8). […] Data represents mean±SEM (n=3). Serum AP complement activity was highly variable across the control groups.

[6] = test system: C3 mRNA; assay: Liver C3 mRNA (RT-qPCR) in rats; type: in vivo, Sprague-Dawley rats; details: for mean C3 expression in liver, % of gene expression in the vehicle treated arm: 30 mg/kg
Description: as §3, §4
PD tissue samples were analyzed for C3 mRNA levels using a semi-validated RT-qPCR method at EpigenDx (MA, USA).

[7] = Tolerability observations in rats; type: in vivo, Sprague-Dawley rats
Description: as §3

[8] = test system: C3 protein; assay: Plasma C3 protein (ELISA) in rats after SC administration; type: in vivo, Sprague-Dawley rats
Description: as §3, §4
Bioanalytical Methods: Plasma PD samples were analyzed for concentrations of C3 protein at Confluence Discovery Technologies (MO, USA) using a double antibody sandwich ELISA kit according to the manufacturer's instructions (Eagle Biosciences; plasma dilution of 1:10,000).

[9] = single SC dose 3, 10 or 30 mg/kg
[10] = SC 3, 10, 30 mg/kg, single or 3x daily

**Q.** Which Activity over compstatin [1] does the source give for “Ac-ICVWQDWGAHRCdT-COOH [AC-V4W/H9A/T13dT-OH]” here?
**A.** The Activity over compstatin was 55× more.

**Q.** Which Activity over compstatin [1] does the source give for Ac-ICVYQDWGAHRCT-CONH2 [AC-V4Y/H9A] here?
**A.** The Activity over compstatin was 14× more.

**Q.** With “H-GICV(6fW)QD(6fW)GAHRCTN-COOH (H-GICV[Trp(6-F)]QD[Trp(6-F)]GAHRCTN-OH; not fully specified (bridges); cysteine pairing not given here) [+GA/4(6fW)/W7(6fW)H9A+N-OH]” as the substance, how does the Activity over compstatin [1] read?
**A.** Its Activity over compstatin is 126× more.

**Q.** For “siRNA 58: siRNA 53 further modified; sense SEQ ID NO: 325 / antisense SEQ ID NO: 275; GalNAc conjugated via NHC6 linker at 5′ end of sense strand (sense {GalNAc-NHC6}-mC*mC*fAmAmCmUfAfCfAmUmGfAmAmCmCmUfA*mC*mA; antisense mU*fG*mUmAmGmGmUmUmCmAmUmGmUfAmGmUmUmGmG*mC*mU) [siRNA 53 further modified; GalNAc conjugated via NHC6 linker at 5′ end of sense strand]”, which “reduction of serum C3 protein vs baseline” value ([2]; single SC dose 3 mg/kg) is on record?
**A.** Its value is 77%.

**Q.** What about the “reduction of serum C3 protein vs baseline” value ([2]; single SC dose 10 mg/kg) of the same substance?
**A.** The value was 85%.

**Q.** What about the “reduction of serum C3 protein vs baseline” value ([2]; single SC dose 30 mg/kg) of the same substance?
**A.** The value was 90%.

**Q.** And the “duration of serum C3 protein reduction” value [2, 9]?
**A.** Its value is “sustained out to day 67”.

**Q.** And the “reduction of liver C3 mRNA vs vehicle control” value (“reduction of liver C3 mRNA” below) ([3]; single SC dose 3 mg/kg)?
**A.** Its value is 89%.

**Q.** And the “reduction of liver C3 mRNA” value ([3]; single SC dose 10 mg/kg)?
**A.** Its value is 97%.

**Q.** And the “reduction of liver C3 mRNA” value ([3]; single SC dose 30 mg/kg)?
**A.** Its value is 99%.

**Q.** What about the “duration of liver C3 mRNA reduction” value [3, 9] of the same substance?
**A.** Its value is “sustained at day 46”.

**Q.** What about the “reduction of alternative complement pathway activity (AH50) vs baseline” value (“reduction … (AH50) vs baseline” below) ([4]; single SC dose 3 mg/kg, by day 29) of the same substance?
**A.** The value was 65%.

**Q.** What about the “reduction … (AH50) vs baseline” value ([4]; single SC dose 3 mg/kg, day 67) of the same substance?
**A.** The value was 68%.

**Q.** What about the “reduction … (AH50) vs baseline” value ([4]; single SC dose 10 mg/kg, by day 29) of the same substance?
**A.** The value was 82%.

**Q.** And the “reduction … (AH50) vs baseline” value ([4]; single SC dose 10 mg/kg, day 67)?
**A.** The value was 91%.

**Q.** What about the “reduction … (AH50) vs baseline” value ([4]; single SC dose 30 mg/kg, by day 29) of the same substance?
**A.** The value was 92%.

**Q.** What about the “reduction … (AH50) vs baseline” value ([4]; single SC dose 30 mg/kg, day 67) of the same substance?
**A.** Its value is 98%.

**Q.** Which results are given for “siRNA 59: siRNA 33 further modified; sense SEQ ID NO: 326 / antisense SEQ ID NO: 260; GalNAc conjugated via NHC6 linker at 5′ end of sense strand (sense {GalNAc-NHC6}-mU*mC*fCmAmAmGfCfCfUmUmGfGmCmUmCmAfA*mU*mA; antisense mU*fA*mUmUmGmAmGmCmCmAmAmGmGfCmUmUmGmGmA*mA*mC) [siRNA 33 further modified; GalNAc conjugated via NHC6 linker at 5′ end of sense strand]”?
**A.** change in AP Wieslab activity ([5]; dose groups other than high-dose (3 and 10 mg/kg)): No change; mean reduction in alternative pathway activity ([5]; high dose group (30 mg/kg single SC), day 8 to day 15 post-dose): approximately 90%; mean C3 expression in liver, % of gene expression in the vehicle treated arm ([6]; day 3): 3%; mean C3 expression in liver, % of gene expression in the vehicle treated arm ([6]; day 30): 25%; recovery of liver C3 expression ([6]; all treatment animals, study termination at day 30): None of the treatment animals had fully recovered; reduction in C3 mRNA in liver across doses ([6]; both terminal timepoints (day 3 and day 30)): dose-dependent manner; level of liver C3 mRNA vs vehicle control ([6]; single dose PK animal groups, 3 days following treatment): significantly reduced; tolerability of the doses used [7, 10]: well-tolerated; body weight following TA administration ([7]; all treatment groups): no loss in body weight; signs of distress or behavioral changes ([7]; all treatment groups): No signs of distress or behavioral changes; recovery of plasma C3 protein to baseline levels ([8]; 3 mg/kg dose group, day 29): Full recovery; reduction in C3 plasma protein concentration ([8]; 10 mg/kg dose): ~90%; plasma C3 concentration, single dose treatment vs QDx3 equivalent dose groups ([8]; 3, 10, 30 mg/kg total dose): comparable; recovery of plasma C3 protein to baseline levels ([8]; 10 and 30 mg/kg dose groups, final blood collection on day 29): did not appear to have fully recovered; change in plasma C3 concentration across the dose groups [8, 10]: clear dose-dependent response; time at which maximal C3 protein reduction in plasma was achieved ([8]; all dose groups): ≤ 8 study day
